# “Also recorded” adds a separate entry of the source.
# Key:
# [1] = tested on: DYRK kinases; assay: radiometric kinase assay, summary for DYRK kinases; format: biochemical; conditions: DYRK1A, DYRK1B, DYRK2; listed as VS-77
# Text: Finally, in order to complete our profiling of VS-77, we then measured its activity against the DYRK 1A, DYRK1B and DYRK2 kinases and the results are reported in Table 3.
# This point will be discussed in the molecular modeling part below.
# [2] = molecular target: CLK1, CLK2, and CLK4; assay: radiometric kinase assay, summary for the other CLKs; format: biochemical, mouse; conditions: Table 2; read-out: inhibition of CLK1, CLK2, and CLK4 (best value)
# Text: The results are reported in Table 2 and in Supporting Information File 1.
# [3] = molecular target: Hs_GSK3β (Homo sapiens, UniProt P49841); assay: primary screening, short panel of mammalian kinases; format: biochemical; conditions: ATP 10 µM, means, n = 2, read-out: Residual kinase activity Hs_GSK3β
# Text: (§1) Our molecules have been submitted first to a primary screening against a panel of eight disease-related kinases: five members of the CMGC (for CDK, MAPK, GSK3, and CLK) group (CDK5/p25, CDK9/CyclinT, GSK3β, CLK1 and DYRK1A), one CAMK (calmodulin/calcium regulated kinase PIM1), one CK1 (the casein kinase CK1ε), and haspin as a […] kinase.
# (§2) Figure 4 Primary evaluation of the inhibition of the new quinazolines against a short panel of mammalian kinases. Residual kinase activities are expressed in % of maximal activity, i.e., measured in the absence of inhibitor but with an equivalent dose of DMSO (solvent of the tested compounds). ATP concentration used in the kinase assays was 10 µM (values are means, n = 2). Kinases are from human origin (Homo sapiens) except CLK1 (from Mus musculus) and DYRK1A (from Rattus norvegicus). […]
# [4] = molecular target: T1, Hs_HASPIN (Homo sapiens, UniProt Q8TF76); assay: as above; format: biochemical; conditions: ATP 10 µM, means, n = 2, read-out: Residual kinase activity Hs_HASPIN
# T1 sequence (Q8TF76 1-798): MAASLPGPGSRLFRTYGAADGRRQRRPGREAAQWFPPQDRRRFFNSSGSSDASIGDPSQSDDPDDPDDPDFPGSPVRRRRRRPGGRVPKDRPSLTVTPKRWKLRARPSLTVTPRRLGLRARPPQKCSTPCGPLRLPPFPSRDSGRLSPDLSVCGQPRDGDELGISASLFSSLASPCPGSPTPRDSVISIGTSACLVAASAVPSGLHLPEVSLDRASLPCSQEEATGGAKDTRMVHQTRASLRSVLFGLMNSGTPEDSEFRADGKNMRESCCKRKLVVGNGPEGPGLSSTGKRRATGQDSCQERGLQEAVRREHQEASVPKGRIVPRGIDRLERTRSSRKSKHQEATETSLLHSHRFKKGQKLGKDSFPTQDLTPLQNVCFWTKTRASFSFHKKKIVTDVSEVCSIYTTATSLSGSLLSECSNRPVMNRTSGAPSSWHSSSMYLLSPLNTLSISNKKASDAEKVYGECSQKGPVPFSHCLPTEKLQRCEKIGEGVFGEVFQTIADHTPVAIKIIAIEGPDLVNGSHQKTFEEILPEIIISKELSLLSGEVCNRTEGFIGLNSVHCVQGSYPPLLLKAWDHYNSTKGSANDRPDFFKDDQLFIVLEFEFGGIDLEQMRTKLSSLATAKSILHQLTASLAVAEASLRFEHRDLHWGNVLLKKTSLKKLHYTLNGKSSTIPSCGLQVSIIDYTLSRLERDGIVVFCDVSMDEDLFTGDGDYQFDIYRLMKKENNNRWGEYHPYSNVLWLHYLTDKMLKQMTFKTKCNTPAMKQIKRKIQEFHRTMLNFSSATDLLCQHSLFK
# Text: as §1, §2
# Chain of Hs_GSK3β (P49841 whole entry): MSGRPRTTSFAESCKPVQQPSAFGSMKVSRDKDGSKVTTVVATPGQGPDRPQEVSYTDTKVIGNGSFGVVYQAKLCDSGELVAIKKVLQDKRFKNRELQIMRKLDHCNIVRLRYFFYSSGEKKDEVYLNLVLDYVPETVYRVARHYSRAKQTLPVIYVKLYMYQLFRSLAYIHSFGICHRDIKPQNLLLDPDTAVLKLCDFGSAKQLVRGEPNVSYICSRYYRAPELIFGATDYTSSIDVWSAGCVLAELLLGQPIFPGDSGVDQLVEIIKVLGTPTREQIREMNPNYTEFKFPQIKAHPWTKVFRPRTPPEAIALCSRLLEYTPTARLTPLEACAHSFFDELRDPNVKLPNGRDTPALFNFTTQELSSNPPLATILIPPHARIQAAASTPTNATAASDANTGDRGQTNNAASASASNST
compound,measurement,setting,value
Cc1ccc(-n2cc(COc3cccc4cnc(Nc5cc(Cl)cc(-c6cccc(C(=O)O)c6)c5)nc34)nn2)c([N+](=O)[O-])c1 [Compound 13b],inhibition of DYRK kinases,[1],"low, but significant inhibition; also recorded: weak inhibitor"
same,IC50,[2],60 nM
same,remaining activity at 1 µM,[3]; compound 1 μM,≥ 100%
same,remaining activity at 10 µM,[3]; compound 10 μM,43%
same,remaining activity at 1 µM,[4]; compound 1 μM,74%
same,remaining activity at 10 µM,[4]; compound 10 μM,74%

# From publication PMC12557437, “Research towards selective inhibition of the CLK3 kinase” (Beilstein Journal of Organic Chemistry, 2025)
